Measurements: the NIST ThermoML archive (doi:10.1016/j.jct.2015.01.001)

Experiment: mn = molality of the nth substance listed, in mol/kg
Details: Liquid; for viscosity: Falling or rolling sphere viscometry; for mass density: Vibrating tube method

S [hydrogen sulfide] + O=S1(=O)CCCC1
Details | mass density [kg/m3] | viscosity [mPa·s]
303.15 K, 86.7 kPa, m1 = 0.389 | 1257 | 9.33
303.15 K, 137.1 kPa, m1 = 0.623 | 1255 | 8.58
303.15 K, 193.6 kPa, m1 = 0.915 | 1253 | 7.76
303.15 K, 230.1 kPa, m1 = 1.128 | 1251 | 6.88
303.15 K, 304.1 kPa, m1 = 1.435 | 1248 | 6.31
303.15 K, 364.8 kPa, m1 = 1.764 | 1246 | 5.55
303.15 K, 401.1 kPa, m1 = 2.032 | 1244 | 5.09
303.15 K, 503.2 kPa, m1 = 2.605 | 1242 | 4.44
303.15 K, 616.7 kPa, m1 = 3.291 | 1238 | 3.7
303.15 K, 738.4 kPa, m1 = 4.17 | 1237 | 2.95
303.15 K, 889.7 kPa, m1 = 5.327 | 1233 | 2.08
303.15 K, 1040.5 kPa, m1 = 6.929 | 1230 | 1.47
313.15 K, 160.8 kPa, m1 = 0.626 | 1246 | 6.7
313.15 K, 227 kPa, m1 = 0.884 | 1242 | 6.03
313.15 K, 273.9 kPa, m1 = 1.021 | 1242 | 5.5
313.15 K, 362.7 kPa, m1 = 1.408 | 1238 | 5.07
313.15 K, 419.7 kPa, m1 = 1.723 | 1236 | 4.54
313.15 K, 481.3 kPa, m1 = 2.009 | 1234 | 4.02
313.15 K, 586.5 kPa, m1 = 2.375 | 1231 | 3.74
313.15 K, 718.4 kPa, m1 = 3.078 | 1228 | 3.07
313.15 K, 859.9 kPa, m1 = 3.931 | 1225 | 2.44
313.15 K, 1035.5 kPa, m1 = 5.164 | 1223 | 1.8
323.15 K, 76.1 kPa, m1 = 0.222 | 1243 | 6.09
323.15 K, 118.7 kPa, m1 = 0.378 | 1242 | 5.55
323.15 K, 190.1 kPa, m1 = 0.579 | 1239 | 5.16
323.15 K, 267.2 kPa, m1 = 0.823 | 1236 | 4.49
323.15 K, 317.2 kPa, m1 = 1.009 | 1234 | 4.35
323.15 K, 430.1 kPa, m1 = 1.389 | 1229 | 3.74
323.15 K, 490.4 kPa, m1 = 1.704 | 1226 | 3.41
323.15 K, 565.2 kPa, m1 = 1.985 | 1223 | 3.09
323.15 K, 688.7 kPa, m1 = 2.348 | 1220 | 2.86
323.15 K, 843.7 kPa, m1 = 3.097 | 1216 | 2.35
323.15 K, 1009.9 kPa, m1 = 3.97 | 1215 | 1.89
333.15 K, 88.3 kPa, m1 = 0.218 | 1233 | 4.78
333.15 K, 139.2 kPa, m1 = 0.372 | 1231 | 4.65
333.15 K, 219.9 kPa, m1 = 0.571 | 1228 | 4.29
333.15 K, 314.1 kPa, m1 = 0.811 | 1225 | 3.86
333.15 K, 370.5 kPa, m1 = 0.995 | 1223 | 3.58
333.15 K, 505.9 kPa, m1 = 1.368 | 1219 | 3.17
333.15 K, 576.7 kPa, m1 = 1.681 | 1215 | 2.8
333.15 K, 664 kPa, m1 = 1.959 | 1212 | 2.55
333.15 K, 800 kPa, m1 = 2.462 | 1208 | 2.29
343.15 K, 96 kPa, m1 = 0.205 | 1223 | 3.95
343.15 K, 159.7 kPa, m1 = 0.347 | 1220 | 3.74
343.15 K, 253.3 kPa, m1 = 0.563 | 1218 | 3.5
343.15 K, 368.1 kPa, m1 = 0.797 | 1215 | 3.13
343.15 K, 428.2 kPa, m1 = 0.981 | 1214 | 2.99
343.15 K, 590.6 kPa, m1 = 1.347 | 1211 | 2.65
343.15 K, 678.9 kPa, m1 = 1.654 | 1204 | 2.34
343.15 K, 782.1 kPa, m1 = 1.927 | 1202 | 2.18
343.15 K, 914 kPa, m1 = 2.221 | 1200 | 2.01
343.15 K, 1119.8 kPa, m1 = 2.876 | 1196 | 1.65
353.15 K, 116.1 kPa, m1 = 0.202 | 1216 | 3.24
353.15 K, 179.9 kPa, m1 = 0.319 | 1214 | 3.11
353.15 K, 288.8 kPa, m1 = 0.546 | 1210 | 2.69
353.15 K, 427.9 kPa, m1 = 0.802 | 1209 | 2.53
353.15 K, 494.2 kPa, m1 = 0.965 | 1206 | 2.46
353.15 K, 683.1 kPa, m1 = 1.324 | 1199 | 2.2
353.15 K, 795.9 kPa, m1 = 1.624 | 1195 | 1.98
353.15 K, 911.1 kPa, m1 = 1.894 | 1193 | 1.81
363.15 K, 131.7 kPa, m1 = 0.195 | 1208 | 2.71
363.15 K, 201.9 kPa, m1 = 0.304 | 1206 | 2.61
363.15 K, 327.1 kPa, m1 = 0.504 | 1202 | 2.46
363.15 K, 494.7 kPa, m1 = 0.767 | 1199 | 2.21
363.15 K, 565.7 kPa, m1 = 0.912 | 1196 | 2.05
363.15 K, 784.2 kPa, m1 = 1.3 | 1190 | 1.74
363.15 K, 928.7 kPa, m1 = 1.591 | 1185 | 1.5
363.15 K, 1052.3 kPa, m1 = 1.86 | 1184 | 1.37

O=S1(=O)CCCC1 [sulfolane] + O=C=O
Details | mass density [kg/m3] | viscosity [mPa·s]
303.15 K, 118.4 kPa, m2 = 0.103 | 1260 | 9.99
303.15 K, 191.2 kPa, m2 = 0.174 | 1259 | 9.8
303.15 K, 316.5 kPa, m2 = 0.284 | 1258 | 9.36
303.15 K, 495.3 kPa, m2 = 0.438 | 1256 | 8.97
303.15 K, 648.5 kPa, m2 = 0.598 | 1255 | 8.34
303.15 K, 777.7 kPa, m2 = 0.709 | 1254 | 7.85
303.15 K, 1063.8 kPa, m2 = 1.001 | 1253 | 7
303.15 K, 1253.8 kPa, m2 = 1.205 | 1252 | 6.48
303.15 K, 1447.1 kPa, m2 = 1.423 | 1252 | 5.96
313.15 K, 121.8 kPa, m2 = 0.0954 | 1252 | 7.98
313.15 K, 200.8 kPa, m2 = 0.1579 | 1250 | 7.73
313.15 K, 324.9 kPa, m2 = 0.2571 | 1249 | 7.61
313.15 K, 526 kPa, m2 = 0.4296 | 1247 | 7.13
313.15 K, 732.9 kPa, m2 = 0.5763 | 1246 | 6.88
313.15 K, 855.1 kPa, m2 = 0.6803 | 1245 | 6.36
313.15 K, 1169.6 kPa, m2 = 0.9594 | 1243 | 5.81
313.15 K, 1383.5 kPa, m2 = 1.159 | 1243 | 5.28
313.15 K, 1644.1 kPa, m2 = 1.385 | 1242 | 4.99
323.15 K, 141.1 kPa, m2 = 0.093 | 1242 | 6.21
323.15 K, 238.4 kPa, m2 = 0.163 | 1241 | 6.1
323.15 K, 392.8 kPa, m2 = 0.266 | 1239 | 5.97
323.15 K, 632 kPa, m2 = 0.417 | 1237 | 5.69
323.15 K, 817.7 kPa, m2 = 0.557 | 1235 | 5.46
323.15 K, 993.9 kPa, m2 = 0.692 | 1234 | 5.16
323.15 K, 1413.4 kPa, m2 = 1.019 | 1232 | 4.68
323.15 K, 1706.6 kPa, m2 = 1.217 | 1231 | 4.28
323.15 K, 2006.9 kPa, m2 = 1.472 | 1231 | 3.98
333.15 K, 153.2 kPa, m2 = 0.091 | 1233 | 5.14
333.15 K, 263.6 kPa, m2 = 0.158 | 1232 | 5.09
333.15 K, 436.2 kPa, m2 = 0.257 | 1229 | 4.92
333.15 K, 694.6 kPa, m2 = 0.415 | 1226 | 4.5
333.15 K, 896.4 kPa, m2 = 0.54 | 1224 | 4.4
333.15 K, 1035.8 kPa, m2 = 0.626 | 1223 | 4.27
333.15 K, 1456.6 kPa, m2 = 0.886 | 1220 | 3.87
333.15 K, 1761.6 kPa, m2 = 1.061 | 1218 | 3.69
343.15 K, 168.2 kPa, m2 = 0.087 | 1223 | 4.19
343.15 K, 296.7 kPa, m2 = 0.155 | 1222 | 4.06
343.15 K, 477.6 kPa, m2 = 0.249 | 1219 | 4
343.15 K, 758.5 kPa, m2 = 0.402 | 1216 | 3.61
343.15 K, 978.6 kPa, m2 = 0.526 | 1213 | 3.63
343.15 K, 1118.9 kPa, m2 = 0.603 | 1211 | 3.46
343.15 K, 1538.6 kPa, m2 = 0.853 | 1207 | 3.24
343.15 K, 1852.6 kPa, m2 = 1.011 | 1205 | 3.02
343.15 K, 2326.1 kPa, m2 = 1.305 | 1203 | 2.92
353.15 K, 178.9 kPa, m2 = 0.08 | 1215 | 3.5
353.15 K, 305 kPa, m2 = 0.137 | 1212 | 3.27
353.15 K, 509.4 kPa, m2 = 0.232 | 1209 | 3.14
353.15 K, 828 kPa, m2 = 0.38 | 1205 | 3.16
353.15 K, 1248.9 kPa, m2 = 0.581 | 1199 | 3
353.15 K, 1720.3 kPa, m2 = 0.822 | 1194 | 2.78
353.15 K, 1911.1 kPa, m2 = 0.924 | 1192 | 2.62
363.15 K, 188.8 kPa, m2 = 0.076 | 1205 | 2.84
363.15 K, 327.8 kPa, m2 = 0.133 | 1203 | 2.74
363.15 K, 555 kPa, m2 = 0.225 | 1199 | 2.64
363.15 K, 902.8 kPa, m2 = 0.366 | 1194 | 2.49
363.15 K, 1404.2 kPa, m2 = 0.573 | 1189 | 2.39
363.15 K, 2015 kPa, m2 = 0.822 | 1185 | 2.24
